Results from US9981930B1, “MAGL inhibitors” (ABIDE THERAPEUTICS, INC., priority 2016, dated 2018).

Tests used:
[1] = molecular target: T1, MAGL Human (Homo sapiens, UniProt Q99685); experiment: In vitro competitive activity-based protein profiling (human); assay type: biochemical; conditions: human prefrontal cortex or cell membrane fractions; 30 min preincubation at 37° C.; FP-Rh or JW912 probe
T1 construct: Proteomes (human prefrontal cortex or cell membrane fractions); from tissue; host or cells: human prefrontal cortex or cell membrane fractions
T1 sequence (Q99685 1-303): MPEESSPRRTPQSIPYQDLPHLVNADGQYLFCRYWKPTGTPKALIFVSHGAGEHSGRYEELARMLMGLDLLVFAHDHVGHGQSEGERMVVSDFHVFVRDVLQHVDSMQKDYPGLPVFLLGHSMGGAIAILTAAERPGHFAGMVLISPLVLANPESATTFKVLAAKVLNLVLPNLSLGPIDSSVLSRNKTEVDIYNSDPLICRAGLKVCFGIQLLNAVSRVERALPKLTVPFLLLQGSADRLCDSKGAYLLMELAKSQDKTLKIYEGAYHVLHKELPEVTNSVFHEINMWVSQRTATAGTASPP
Experimental: In Vitro Competitive Activity-Based Protein Profiling (Human).
(§1) Proteomes (human prefrontal cortex or cell membrane fractions) (50 μL, 1.0-2.0 mg/mL total protein concentration) were preincubated with varying concentrations of inhibitors at 37° C. After 30 min, FP-Rh or JW912 (1.0 μL, 50 μM in DMSO) was added and the mixture was incubated for another 30 min at room temperature. Reactions were quenched with SDS loading buffer (15 μL-4×) and run on SDS-PAGE. Following gel imaging, serine hydrolase activity was determined by measuring fluorescent intensity of gel bands corresponding to MAGL using ImageJ 1.49k software.

[2] = molecular target: T2, MAGL (Mus musculus, UniProt O35678); experiment: Mouse brain proteomes from inhibitor treated mice (ex vivo activity-based protein profiling after oral gavage); assay type: in vivo; conditions: 5 mg/kg oral gavage, C57Bl/6J mice, brain proteomes 4 h following administration
T2 construct: from tissue; host or cells: brain of wild-type C57Bl/6J mice
T2 sequence (O35678 1-303): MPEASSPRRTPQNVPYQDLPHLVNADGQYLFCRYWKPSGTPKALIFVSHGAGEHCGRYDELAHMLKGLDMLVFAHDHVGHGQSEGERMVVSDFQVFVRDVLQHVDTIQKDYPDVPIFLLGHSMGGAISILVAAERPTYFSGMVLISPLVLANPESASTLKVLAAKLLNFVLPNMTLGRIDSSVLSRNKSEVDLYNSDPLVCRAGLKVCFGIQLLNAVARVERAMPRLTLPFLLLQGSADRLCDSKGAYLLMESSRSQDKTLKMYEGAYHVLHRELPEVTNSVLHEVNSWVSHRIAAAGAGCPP
Experimental: as §1, with “(mouse brain membrane fraction” for “(human prefrontal cortex”, “lysates)” for “membrane fractions)”, “1.0” for “1.0-2.0”, “FP-Rh” for “FP-Rh or JW912”, “37° C.” for “room temperature.”, “(50” for “(15”
Preparation of Mouse Brain Proteomes from Inhibitor Treated Mice.

Row | SMILES | IC50 [1] [nM] | inhibition at 5 mg/kg [2] [%]
1 | O=C(O)CCNc1cc(C(F)(F)F)ccc1CN1CCN(C(=O)OC(C(F)(F)F)C(F)(F)F)CC1 [Example 4, 3-((2-((4-(((1,1,1,3,3,3-Hexafluoropropan-2-yl)oxy)carbonyl)piperazin-1-yl)methyl)-5-(trifluoromethyl)phenyl)amino)propanoic acid] | < 100 | > 75
2 | C[C@H](Nc1cc(C(F)(F)F)ccc1CN1CCN(C(=O)OC(C(F)(F)F)C(F)(F)F)CC1)C(=O)O [Example 7, (2-((4-(((1,1,1,3,3,3-hexafluoropropan-2-yl)oxy)carbonyl)piperazin-1-yl)methyl)-5-(trifluoromethyl)phenyl)-L-alanine] | < 100 | 25 to 75
3 | O=C(O)CCCNc1cc(C(F)(F)F)ccc1CN1CCN(C(=O)OC(C(F)(F)F)C(F)(F)F)CC1 [Example 1, 4-((2-((4-(((1,1,1,3,3,3-Hexafluoropropan-2-yl)oxy)carbonyl)piperazin-1-yl)methyl)-5-(trifluoromethyl)phenyl)amino)butanoic acid] | < 100 | > 75
4 | O=C(O)CCNc1cc(Cl)ccc1CN1CCN(C(=O)OC(C(F)(F)F)C(F)(F)F)CC1 [Example 5, 3-((5-Chloro-2-((4-(((1,1,1,3,3,3-hexafluoropropan-2-yl)oxy)carbonyl)piperazin-1-yl)methyl)phenyl)amino)propanoic acid] | < 100 | –
5 | O=C(O)CNc1cc(C(F)(F)F)ccc1CN1CCN(C(=O)OC(C(F)(F)F)C(F)(F)F)CC1 [Example 6, (2-((4-(((1,1,1,3,3,3-Hexafluoropropan-2-yl)oxy)carbonyl)piperazin-1-yl)methyl)-5-(trifluoromethyl)phenyl)glycine] | < 100 | –
6 | O=C(O)CNc1cc(Cl)ccc1CN1CCN(C(=O)OC(C(F)(F)F)C(F)(F)F)CC1 [Example 3, (5-Chloro-2-((4-(((1,1,1,3,3,3-hexafluoropropan-2-yl)oxy)carbonyl)piperazin-1-yl)methyl)phenyl)glycine] | < 100 | 25 to 75
7 | O=C(O)CCCNc1cc(Cl)ccc1CN1CCN(C(=O)OC(C(F)(F)F)C(F)(F)F)CC1 [Example 2, 4-((5-Chloro-2-((4-(((1,1,1,3,3,3-hexafluoropropan-2-yl)oxy)carbonyl)piperazin-1-yl)methyl)phenyl)amino)butanoic acid] | < 100 | 25 to 75
